{"source": "paper PMC7413254", "about": "(Nature Communications, 2020)", "key": {"[1]": {"test_system": "non-expressing oocytes", "assay": "cells", "type": "cell-based, Xenopus laevis", "conditions": "non-expressing oocytes, total [3H]CQ transport, normalised to the oocyte type control", "in_short": "(§1)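 Radioactivity accumulated per oocyte, read by liquid scintillation after 10% SDS lysis, served as the uptake measure. Incubations ran 1.5 h at 27.5 °C in ND96 at pH 5.5, matching digestive-vacuole acidity.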"}, "[2]": {"target": "T1, PfCRT^3D7 (Plasmodium falciparum, UniProt Q8IBZ9)", "T1 sequence (Q8IBZ9 59-398)": "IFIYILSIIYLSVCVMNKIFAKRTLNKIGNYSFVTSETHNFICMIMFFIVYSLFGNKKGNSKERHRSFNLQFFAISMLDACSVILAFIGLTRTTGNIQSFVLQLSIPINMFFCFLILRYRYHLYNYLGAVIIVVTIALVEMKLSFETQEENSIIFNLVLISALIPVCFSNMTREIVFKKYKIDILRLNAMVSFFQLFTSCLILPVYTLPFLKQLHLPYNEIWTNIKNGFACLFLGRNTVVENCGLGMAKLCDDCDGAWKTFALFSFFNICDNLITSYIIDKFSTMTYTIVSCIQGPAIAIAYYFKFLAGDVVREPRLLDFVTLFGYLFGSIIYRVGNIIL", "assay": "cell-based", "type": "cell-based", "conditions": "PfCRT3D7 oocytes, total [3H]CQ transport, normalised to the oocyte type control", "in_short": "as §1"}, "[3]": {"target": "T2, PfCRT^Dd2 (Plasmodium falciparum, UniProt Q9N623, A220S/I356T/K76T/M74I/N326S/N75E/Q271E/R371I)", "T2 sequence (Q9N623 whole entry A220S/I356T/K76T/M74I/N326S/N75E/Q271E/R371I)": "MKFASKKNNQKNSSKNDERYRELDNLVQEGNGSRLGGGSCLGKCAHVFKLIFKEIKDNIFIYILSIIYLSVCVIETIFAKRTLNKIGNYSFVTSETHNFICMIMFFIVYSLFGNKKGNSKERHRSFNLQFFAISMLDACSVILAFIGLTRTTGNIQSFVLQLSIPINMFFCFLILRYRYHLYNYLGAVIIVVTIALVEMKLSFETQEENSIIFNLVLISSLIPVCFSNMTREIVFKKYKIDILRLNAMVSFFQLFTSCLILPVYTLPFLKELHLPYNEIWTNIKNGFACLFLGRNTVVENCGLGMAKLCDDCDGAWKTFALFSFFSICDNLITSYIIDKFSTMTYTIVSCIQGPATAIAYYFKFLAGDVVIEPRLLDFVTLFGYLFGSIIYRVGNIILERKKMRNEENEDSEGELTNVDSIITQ", "assay": "[3H]CQ uptake into Xenopus oocytes, cis-inhibition by unlabelled solute", "type": "cell-based", "conditions": "PfCRTDd2 oocytes, background [3H]CQ accumulation subtracted, normalised to oocyte type control", "in_short": "as §1"}, "[4]": {"target": "T3, PfCRT^Ecu1110 (Plasmodium falciparum, UniProt Q9N623, A220S/I356L/K76T/N326D)", "T3 sequence (Q9N623 whole entry A220S/I356L/K76T/N326D)": "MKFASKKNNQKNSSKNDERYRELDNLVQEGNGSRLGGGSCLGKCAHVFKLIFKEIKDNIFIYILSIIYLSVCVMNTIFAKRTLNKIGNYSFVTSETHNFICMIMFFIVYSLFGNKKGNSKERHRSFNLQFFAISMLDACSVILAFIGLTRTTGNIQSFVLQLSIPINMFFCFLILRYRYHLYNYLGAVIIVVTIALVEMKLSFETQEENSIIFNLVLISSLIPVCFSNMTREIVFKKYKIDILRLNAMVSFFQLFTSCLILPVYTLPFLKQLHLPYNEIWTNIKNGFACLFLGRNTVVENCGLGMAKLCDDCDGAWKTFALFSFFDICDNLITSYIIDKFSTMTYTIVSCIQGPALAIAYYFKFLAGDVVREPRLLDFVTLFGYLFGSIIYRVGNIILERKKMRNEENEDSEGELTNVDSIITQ", "assay": "[3H]CQ uptake into Xenopus oocytes, cis-inhibition by unlabelled solute", "type": "cell-based", "conditions": "for Uptake of [3H]CQ (% PfCRTEcu1110 control), cis-inhibition / PfCRT-mediated [3H]CQ transport, cis-inhibition (% PfCRTEcu1110 control): PfCRTEcu1110 oocytes; for Uptake of [3H]CQ (% PfCRTEcu1110 control), cis-inhibition: total [3H]CQ transport, normalised to the oocyte type control; for PfCRT-mediated [3H]CQ transport, cis-inhibition (% PfCRTEcu1110 control): background [3H]CQ accumulation subtracted, normalised to oocyte type control; for [3H]CQ transport (% PfCRTEcu1110 control), cis-inhibition, PfCRTEcu1110: PfCRT-mediated component (background subtracted), sheet title says normalised to PfCRTDd2 control, mean ± SEM, SEM", "in_short": "as §1"}, "[5]": {"test_system": "non-expressing oocytes", "type": "cell-based, Xenopus laevis", "conditions": "non-expressing oocytes, total [3H]CQ transport, normalised to the oocyte type control", "in_short": "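Oocytes (ten per treatment, ≥4 independent frogs/days) were preloaded by injecting VF-6 in 25 nL ND96 at pH 5.0, 5.5, 6.0 or 7.0, or Na^+-free choline buffer, then uptake run 1.5 h, 27.5 °C, ND96 pH 5.5 by default. Internal concentrations assumed ~400 nL oocyte volume.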"}, "[6]": {"target": "T1, PfCRT^3D7", "assay": "cell-based", "type": "cell-based", "conditions": "PfCRT3D7 oocytes; for Uptake of [3H]CQ (% PfCRT3D7 control), trans-stimulation: total [3H]CQ transport, normalised to the oocyte type control; for PfCRT-mediated [3H]CQ transport, trans-stimulation (% PfCRT3D7 control): normalised to oocyte type control", "in_short": "(§2)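 Transport measured in Xenopus oocytes expressing the transporters, 1.5 h at 27.5 °C in ND96 pH 5.5 unless noted. For trans-stimulation, VF-6 injected in 25 nL ND96 at pH 5.0–7.0 or Na^+-free (choline) buffer; intracellular levels based on ~400 nL oocyte volume. Ten oocytes per treatment, ≥4 experiments.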"}, "[7]": {"target": "T2, PfCRT^Dd2", "assay": "cell-based", "type": "cell-based", "conditions": "for PfCRT-mediated [3H]CQ transport, trans-stimulation (% PfCRTDd2 control): normalised to oocyte type control; for [3H]CQ transport (% PfCRTDd2 control), trans-stimulation, PfCRTDd2: PfCRT-mediated component (background subtracted), mean ± SEM, SEM", "in_short": "as §2"}, "[8]": {"target": "T3, PfCRT^Ecu1110", "assay": "cell-based", "type": "cell-based", "conditions": "for Uptake of [3H]CQ (% PfCRTEcu1110 control), trans-stimulation / PfCRT-mediated [3H]CQ transport, trans-stimulation (% PfCRTEcu1110 control): PfCRTEcu1110 oocytes; for Uptake of [3H]CQ (% PfCRTEcu1110 control), trans-stimulation: total [3H]CQ transport, normalised to the oocyte type control; for PfCRT-mediated [3H]CQ transport, trans-stimulation (% PfCRTEcu1110 control): normalised to oocyte type control; for [3H]CQ transport (% PfCRTDd2 control), trans-stimulation, PfCRTEcu1110: PfCRT-mediated component (background subtracted), sheet title says normalised to PfCRTDd2 control, mean ± SEM, SEM", "in_short": "as §2"}, "[9]": {"target": "T4, PfNT1 (Plasmodium falciparum, UniProt Q8IDM6)", "T4 construct": "expressed in transfected cells; host or cells: Xenopus laevis oocytes (stage V-VI), cRNA-injected", "T4 sequence (Q8IDM6 whole entry)": "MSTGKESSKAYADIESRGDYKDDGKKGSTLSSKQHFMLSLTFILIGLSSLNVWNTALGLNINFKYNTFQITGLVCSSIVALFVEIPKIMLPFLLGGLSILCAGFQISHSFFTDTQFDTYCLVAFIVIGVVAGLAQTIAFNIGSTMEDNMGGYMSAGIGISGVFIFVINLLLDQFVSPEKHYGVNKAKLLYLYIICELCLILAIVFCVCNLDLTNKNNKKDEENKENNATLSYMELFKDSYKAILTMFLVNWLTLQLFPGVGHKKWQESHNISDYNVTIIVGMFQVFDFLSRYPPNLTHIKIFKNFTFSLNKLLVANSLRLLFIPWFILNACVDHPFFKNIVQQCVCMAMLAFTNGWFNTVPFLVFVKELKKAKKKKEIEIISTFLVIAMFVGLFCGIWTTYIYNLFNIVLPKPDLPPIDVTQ", "assay": "cell-based", "type": "cell-based", "conditions": "PfNT1 oocytes, total [3H]CQ transport, normalised to the oocyte type control", "in_short": "as §2"}, "[10]": {"test_system": "PfCRT", "assay": "Test of solutes as potential co-substrates for influx of VF-6 via PfCRT into the oocyte", "type": "cell-based, Plasmodium falciparum", "parameters": "key: X: Compounds that have been tested as potential co-substrates but are not required for influx of VF-6 via PfCRT into the oocyte", "conditions": "X = tested"}, "[11]": {"test_system": "PfCRT", "assay": "Potential co-substrates tested for influx of VF-6 via PfCRT into the oocyte", "type": "cell-based, Plasmodium falciparum", "parameters": "key: X: Compounds that have been tested as potential co-substrates but are not required for influx of VF-6 via PfCRT into the oocyte"}, "[12]": {"conditions": "[test solute]i = 45 mM (30 mM for some solutes due to solubility)"}, "[13]": {"conditions": "[test solute]i = 5 mM (intracellular)"}, "[14]": {"conditions": "[test solute]i = 45 mM (intracellular; 30 mM for some solutes due to solubility)"}, "[15]": {"conditions": "[test solute]i = 5 mM (injected)"}}, "note": "Like-named read-outs stand apart in the source and are kept apart here."}
{"substance": "PVNF [PF-4]", "values": [{"measurement": "Uptake of [3H]CQ (% non-expressing oocyte control), cis-inhibition", "setting": "[1]; [test solute] = 0.5 mM", "result": "98 ± 4.8 % non-expressing oocyte control"}, {"measurement": "Uptake of [3H]CQ (% non-expressing oocyte control), cis-inhibition", "setting": "[1]; [test solute] = 1 mM", "result": "99 ± 2.6 % non-expressing oocyte control"}, {"measurement": "Uptake of [3H]CQ (% non-expressing oocyte control), cis-inhibition", "setting": "[1]; [test solute] = 2 mM", "result": "98 ± 3.6 % non-expressing oocyte control"}, {"measurement": "Uptake of [3H]CQ (% PfCRT3D7 control), cis-inhibition", "setting": "[2]; [test solute] = 0.5 mM", "result": "99 ± 4.7", "unit": "% PfCRT3D7 control"}, {"measurement": "Uptake of [3H]CQ (% PfCRT3D7 control), cis-inhibition", "setting": "[2]; [test solute] = 1 mM", "result": "100 ± 5.6", "unit": "% PfCRT3D7 control"}, {"measurement": "Uptake of [3H]CQ (% PfCRT3D7 control), cis-inhibition", "setting": "[2]; [test solute] = 2 mM", "result": "101 ± 5.3", "unit": "% PfCRT3D7 control"}, {"measurement": "PfCRT-mediated [3H]CQ transport, cis-inhibition (% PfCRTDd2 control)", "setting": "[3]; [test solute] = 0.5 mM", "result": "60 ± 3.3", "unit": "% PfCRTDd2 control"}, {"measurement": "PfCRT-mediated [3H]CQ transport, cis-inhibition (% PfCRTDd2 control)", "setting": "[3]; [test solute] = 1 mM", "result": "51 ± 0.3", "unit": "% PfCRTDd2 control"}, {"measurement": "PfCRT-mediated [3H]CQ transport, cis-inhibition (% PfCRTDd2 control)", "setting": "[3]; [test solute] = 2 mM", "result": "39 ± 2.1", "unit": "% PfCRTDd2 control"}, {"measurement": "Uptake of [3H]CQ (% PfCRTEcu1110 control), cis-inhibition", "setting": "[4]; [test solute] = 0.5 mM", "result": "65 ± 4.3", "unit": "% PfCRTEcu1110 control"}, {"measurement": "Uptake of [3H]CQ (% PfCRTEcu1110 control), cis-inhibition", "setting": "[4]; [test solute] = 1 mM", "result": "59 ± 3.3", "unit": "% PfCRTEcu1110 control"}, {"measurement": "Uptake of [3H]CQ (% PfCRTEcu1110 control), cis-inhibition", "setting": "[4]; [test solute] = 2 mM", "result": "41 ± 2.4", "unit": "% PfCRTEcu1110 control"}, {"measurement": "PfCRT-mediated [3H]CQ transport, cis-inhibition (% PfCRTEcu1110 control)", "setting": "[4]; [test solute] = 0.5 mM", "result": "61 ± 2.6", "unit": "% PfCRTEcu1110 control"}, {"measurement": "PfCRT-mediated [3H]CQ transport, cis-inhibition (% PfCRTEcu1110 control)", "setting": "[4]; [test solute] = 1 mM", "result": "51 ± 4.2", "unit": "% PfCRTEcu1110 control"}, {"measurement": "PfCRT-mediated [3H]CQ transport, cis-inhibition (% PfCRTEcu1110 control)", "setting": "[4]; [test solute] = 2 mM", "result": "37 ± 2.9", "unit": "% PfCRTEcu1110 control"}, {"measurement": "[3H]CQ transport (% PfCRTEcu1110 control), cis-inhibition, PfCRTEcu1110", "setting": "[4]; [test solute] = 1 mM", "result": "16 ± 0.2", "unit": "% PfCRTEcu1110 control"}, {"measurement": "[3H]CQ transport (% PfCRTEcu1110 control), cis-inhibition, PfCRTEcu1110", "setting": "[4]; [test solute] = 2 mM", "result": "12 ± 0.3", "unit": "% PfCRTEcu1110 control"}, {"measurement": "Uptake of [3H]CQ (% non-expressing oocyte control), trans-stimulation", "setting": "[5]; [test solute]i = 5 mM", "result": "99 ± 2.7 % non-expressing oocyte control"}, {"measurement": "Uptake of [3H]CQ (% non-expressing oocyte control), trans-stimulation", "setting": "[5]; [12]", "result": "99 ± 3.4 % non-expressing oocyte control"}, {"measurement": "Uptake of [3H]CQ (% PfCRT3D7 control), trans-stimulation", "setting": "[6]; [test solute]i = 5 mM", "result": "138 ± 4.2", "unit": "% PfCRT3D7 control"}, {"measurement": "Uptake of [3H]CQ (% PfCRT3D7 control), trans-stimulation", "setting": "[6]; [12]", "result": "163 ± 7.4", "unit": "% PfCRT3D7 control"}, {"measurement": "PfCRT-mediated [3H]CQ transport, trans-stimulation (% PfCRT3D7 control)", "setting": "[6]; [13]", "result": "130 ± 3.2", "unit": "% PfCRT3D7 control"}, {"measurement": "PfCRT-mediated [3H]CQ transport, trans-stimulation (% PfCRT3D7 control)", "setting": "[6]; [14]", "result": "157 ± 4.4", "unit": "% PfCRT3D7 control"}, {"measurement": "Uptake of [3H]CQ (% PfCRTDd2 control), trans-stimulation", "setting": "[7]; PfCRTDd2 oocytes, [test solute]i = 45 mM (30 mM for some solutes due to solubility), total [3H]CQ transport, normalised to the oocyte type control", "result": "115 ± 2.7", "unit": "% PfCRTDd2 control"}, {"measurement": "PfCRT-mediated [3H]CQ transport, trans-stimulation (% PfCRTDd2 control)", "setting": "[7]; [test solute]i = 5 mM (intracellular), PfCRTDd2 oocytes", "result": "99 ± 1.9", "unit": "% PfCRTDd2 control"}, {"measurement": "PfCRT-mediated [3H]CQ transport, trans-stimulation (% PfCRTDd2 control)", "setting": "[7]; [test solute]i = 45 mM (intracellular; 30 mM for some solutes due to solubility), PfCRTDd2 oocytes", "result": "112 ± 0.9", "unit": "% PfCRTDd2 control"}, {"measurement": "[3H]CQ transport (% PfCRTDd2 control), trans-stimulation, PfCRTDd2", "setting": "[7]; [15]", "result": "99 ± 1.9", "unit": "% PfCRTDd2 control"}, {"measurement": "[3H]CQ transport (% PfCRTDd2 control), trans-stimulation, PfCRTDd2", "setting": "[7]; [12]", "result": "112 ± 0.9", "unit": "% PfCRTDd2 control"}, {"measurement": "Uptake of [3H]CQ (% PfCRTEcu1110 control), trans-stimulation", "setting": "[8]; [test solute]i = 5 mM", "result": "120 ± 1.1", "unit": "% PfCRTEcu1110 control"}, {"measurement": "Uptake of [3H]CQ (% PfCRTEcu1110 control), trans-stimulation", "setting": "[8]; [12]", "result": "135 ± 1.4", "unit": "% PfCRTEcu1110 control"}, {"measurement": "PfCRT-mediated [3H]CQ transport, trans-stimulation (% PfCRTEcu1110 control)", "setting": "[8]; [13]", "result": "118 ± 0.3", "unit": "% PfCRTEcu1110 control"}, {"measurement": "PfCRT-mediated [3H]CQ transport, trans-stimulation (% PfCRTEcu1110 control)", "setting": "[8]; [14]", "result": "130 ± 3.2", "unit": "% PfCRTEcu1110 control"}, {"measurement": "[3H]CQ transport (% PfCRTDd2 control), trans-stimulation, PfCRTEcu1110", "setting": "[8]; [15]", "result": "36 ± 1.3", "unit": "% PfCRTEcu1110 control"}, {"measurement": "[3H]CQ transport (% PfCRTDd2 control), trans-stimulation, PfCRTEcu1110", "setting": "[8]; [12]", "result": "39 ± 1.7", "unit": "% PfCRTEcu1110 control"}, {"measurement": "Uptake of [3H]CQ (% PfNT1 control), trans-stimulation", "setting": "[9]; [test solute]i = 5 mM", "result": "99 ± 4.2", "unit": "% PfNT1 control"}, {"measurement": "Uptake of [3H]CQ (% PfNT1 control), trans-stimulation", "setting": "[9]; [12]", "result": "100 ± 2.9", "unit": "% PfNT1 control"}, {"measurement": "Tested as potential co-substrate but not required for influx of VF-6 via PfCRT into the oocyte", "setting": "[10]", "result": "X"}, {"measurement": "Tested as potential co-substrate but not required for influx of VF-6 via PfCRT into the oocyte", "setting": "[11]", "result": "X"}]}
